Source: patent publication US20100184664A1, “OPHTHALMIC COMPOSITIONS USEFUL FOR IMPROVING VISUAL ACUITY” (Allergan, Inc., priority 2008, published 2010)

How the values were obtained:
phospho-JNK / total JNK = assay: Beadlyte Cell Signaling Assay, phosphorylated:total JNK; format: cell-based, human; conditions: Beadlyte method, FIG. 3
Procedure: (§1) Human corneoscleral tissues, from donors aged 16-59 years were obtained from the Lions Eye Bank of Texas (Houston, Tex.). Corneal epithelial cells were grown from limbal explants. In brief, after carefully removing the central cornea, excess conjunctiva and iris and corneal endothelium, the limbal rim was cut into 12 equal pieces (about 2×2 mm size each). Two of these pieces were placed epithelial side up into each well of 6-well culture plates, and each explant was covered with a drop of fetal bovine serum (FBS) overnight. The explants were then cultured in SHEM medium, which was an 1:1 mixture of Dulbecco modified Eagle medium (DMEM) and Ham F-12 medium containing 5 ng/mL EGF, 5 μg/mL insulin, 5 μg/mL transferrin, 5 ng/mL sodium selenite, 0.5 μg/mL hydrocortisone, 30 ng/mL cholera toxin A, 0.5% DMSO, 50 μg/mL gentamicin, 1.25 μg/mL amphotericin B and 5% FBS, at 37° C. under 5% CO2 and 95% humidity. The medium was renewed every 2-3 days. Epithelial phenotype of these cultures was confirmed by characteristic morphology and immuno-fluorescent staining with cytokeratin antibodies (AE-1/AE-3).
(§2) A series of primary sub-confluent corneal epithelial cultures (grown for 12 to 14 days, about 4-5×10^5 cells/well) were washed three times with […] buffered saline (PBS) and switched to an Earle's Balanced Salt Solution (EBSS, 300 mOsmols/kg) for 24 hours before treatment. The corneal epithelial cells were cultured for 1 hour in an equal volume (2.0 mL/well) of EBSS media or 400 mOsmols/kg media by adding 53 mM NaCl or sucrose, with either L-carnitine inner salt, betaine hydrochloride, erythritol, or xylitol (all at a concentration of 2 mM) that were pre-added 60 minutes before adding NaCl or sucrose. Samples without these osmoprotectants were also prepared and tested.
(§3) The adherent cells were lysed in Beadlyte® Buffer B (included in the Beadlyte® Cell Signaling buffer kit, Upstate Biotechnology, Lake Placid, N.Y.) containing an EDTA-free protease inhibitor cocktail tablet (Roche Applied Science, Indianapolis, Ind.) for 15 minutes. The cell extracts were centrifuged at 12,000×g for 15 minutes at room temperature and the supernatants were stored at −80° C. until they were analyzed by Western blot analysis. The total protein concentrations of the cell extracts were determined using a Micro BCA protein assay kit (Pierce, Rockford, Ill.). […]
(§4) The beads were washed and mixed with biotinylated specific reporter antibodies for phospho-MAPK or total-MAPK, followed by streptavidin-phycoerythrin. The amount of total or phospho-MAPK was then quantified by the Luminex 100™ system (Luminex, Austin, Tex.). Fifty events per bead were read, and the data output obtained from the Bio-Plex Manager software were exported to Microsoft Excel® for further analysis. […]

[1] = test system: corneal epithelial cells isolated from the rabbit eye; assay: Trans-epithelial electrical resistance (TEER) of layered air-lift corneal epithelial cultures under hypertonic fluid; format: cell-based; conditions: for TEER (as % of isotonic control) at 22 hours: 2 mM solute in hypertonic fluid (400 mOsmols/kg), 22 hours exposure, isotonic control 100%, hypertonic control 23.3; for osmoprotective benefit (TEER relative to the hypertonic control), in words: Example 1, 2 mM, 400 mOsmols/kg, 22 hours; for % TEER relative to the isotonic control, response to concentration: Example 4, different concentrations, TEER measured from 0 to 24 hours, FIG. 6
From the text: In this experiment, corneal epithelial cells were isolated from the rabbit eye and grown under conditions so that they differentiate into a layered “air-lift” culture that includes basal, wing, and squamous cells. As they grow and differentiate, these cultures developed tight junctions between cells that provide the basis for a trans-epithelial electrical resistance (TEER) across the cell layers between the apical and basal surfaces. The TEER value is a sensitive measure of cell growth, differentiation and health.
After 5 days in culture during which the layered structure forms, different culture wells were exposed to hypertonic fluid (400 mOsmols/kg) with or without addition of one of 6 candidate compatible solutes at a low concentration (2 mM). The TEER was then measured after 22 hours of exposure. The TEER value was expressed as a percentage of the TEER value obtained from a similar culture under isotonic (300 mOsmol/kg) conditions.
Example 1 is repeated except that different concentrations of each of the candidate materials are used, and the TEER is measured at various times from 0 to 24 hours.
As in Example 1, the TEER variable is represented as % TEER relative to the isotonic control. […]

[2] = test system: phosphorylated c-jun N-terminal kinases (p-JNK1 and p-JNK2); assay: Western blot analysis of phosphorylated JNK1 and JNK2 in primary corneal epithelial cultures under hyperosmolar media; format: cell-based, human; conditions: 2 mM; for levels of JNK1 and JNK2 in 300 mOsmols/kg cultures: FIG. 2; for JNK activation (levels of JNK1 and JNK2, Western blot intensity) compared to 400 mOsmols/kg media alone: pre-added 60 minutes, 1 hour, FIGS. 1 and 2
Procedure: as §1, §2
The adherent cells were lysed in Beadlyte® Buffer B (included in the Beadlyte® Cell Signaling buffer kit, Upstate Biotechnology, Lake Placid, N.Y.) containing an EDTA-free protease inhibitor cocktail tablet (Roche Applied Science, Indianapolis, Ind.) for 15 minutes. The cell extracts were centrifuged at 12,000×g for 15 minutes at room temperature and the supernatants were stored at −80° C. until they were analyzed by Western blot analysis. The total protein concentrations of the cell extracts were determined using a Micro BCA protein assay kit (Pierce, Rockford, Ill.).
The intensity of each of JNK1 and JNK2 was tested for each of these compositions using Western blot analysis with specific antibodies to each phosphorylated species.
The Western blot analysis was conducted as follows. The protein samples (50 μg per lane) were mixed with 6×SDS reducing sample buffer and boiled for 5 minutes before loading. Proteins were separated by SDS polyacrylamide gel electrophoresis (4-15% Tris-HCl, gradient gels from Bio-Rad, Hercules, Calif.), and transferred electronically to polyvinylidine difluoride (PVDF) membranes (Millipore, Bedford, Mass.). The membranes were blocked with 5% non-fat milk in TTBS (50 mM Tris, pH 7.5, 0.9% NaCl, and 0.1% Tween-20) for 1 hour at room temperature (RT), and then incubated 2 hours at RT with a 1:1000 dilution of rabbit antibody against phospho-p38 MAPK (Cell Signaling, Beverly, Mass.), 1:100 dilution of rabbit antibody against phospho-JNK, or 1:500 dilution of monoclonal antibody against phospho-p44/42 ERK (Santa Cruz Biotechnology, Santa Cruz, Calif.).
After three washings with TTBS, the membranes were incubated for 1 hour at RT with horseradish peroxidase-conjugated secondary antibody goat anti-rabbit IgG (1:2000 dilution, Cell Signaling, Beverly, Mass.), or goat anti-mouse IgG (1:5000 dilution, Pierce, Rockford, Ill.). After washing the membranes four times, the signals were detected with an ECL advance chemiluminescence reagent (Amersham, Piscataway, N.J.) and the images were acquired by a Kodak image station 2000R (Eastman Kodak, New Haven, Conn.). […]

ERK MAP Kinase = assay: Beadlyte Cell Signaling Assay, phospho:total ERK MAP Kinase; format: cell-based, human; conditions: Beadlyte method, FIG. 5
Procedure: as §1, §2, §3, §4

p38 MAP Kinase = assay: Beadlyte Cell Signaling Assay, phospho:total p38 MAP Kinase; format: cell-based, human; conditions: Beadlyte method, FIG. 4
Procedure: Human corneoscleral tissues, from donors aged 16-59 years were obtained from the Lions Eye Bank of Texas (Houston, Tex.). Corneal epithelial cells were grown from limbal explants. In brief, after carefully removing the central cornea, excess conjunctiva and iris and corneal endothelium, the limbal rim was cut into 12 equal pieces (about 2×2 mm size each). Two of these pieces were placed epithelial side up into each well of 6-well culture plates, and each explant was covered with a drop of fetal bovine serum (FBS) overnight. […]
as §3
The beads were washed and mixed with biotinylated specific reporter antibodies for phospho-MAPK or total-MAPK, followed by streptavidin-phycoerythrin. The amount of total or phospho-MAPK was then quantified by the Luminex 100™ system (Luminex, Austin, Tex.). […]

[3] = Component compatibility with stabilized chlorine dioxide preservative; format: physicochemical; conditions: composition including betaine and stabilized chlorine dioxide
Procedure: A composition including betaine and stabilized chlorine dioxide, as a preservative, was tested for component compatibility. […] Thus, betaine is not useful with is certain preservatives, such as stabilized chlorine dioxide. However, betaine may advantageously be employed as a compatible solute in ophthalmic compositions which use other preservative systems, or which are free of preservatives, for example, in single or unit-dose applications.

Row | SMILES | amount of phospho-total JNK relative to the hypertonic control (phospho-JNK / total JNK) | TEER (as % of isotonic control) at 22 hours [1] [%] | osmoprotective benefit (TEER relative to the hypertonic control), in words [1] | % TEER relative to the isotonic control, response to concentration [1] | levels of JNK1 and JNK2 in 300 mOsmols/kg cultures [2] | JNK activation (levels of JNK1 and JNK2, Western blot intensity) compared to 400 mOsmols/kg media alone [2] | amount of ERK relative to the hypertonic control (ERK MAP Kinase) | amount of phospho-total p38 relative to the hypertonic control (p38 MAP Kinase) | component compatibility with stabilized chlorine dioxide (Purite7) preservative [3]
1 | C[N+](C)(C)C[C@H](O)CC(=O)[O-] [Carnitine] | reduced | 118.9 | most benefit | dose-related response | less robust effect | definite decrease | did not | – | –
2 | C[N+](C)(C)CC(=O)O [Betaine, betaine (trimethyl glycine)] | reduced | 53.3 | – | dose-related response | less robust effect | definite decrease | did not | exception | not fully compatible
3 | OC[C@@H](O)[C@H](O)[C@@H](O)CO [Xylitol] | reduced | 94.1 | good results | – | – | no effect | reduced | – | –
4 | O[C@H]1[C@H](O)[C@@H](O)[C@H](O)[C@@H](O)[C@H]1O [Myo-Inositol] | – | 74.8 | good results | – | – | – | – | – | –
5 | OC[C@@H](O)[C@@H](O)CO [Erythritol] | reduced | 107.4 | best results among the polyols tested | dose-related response | – | no effect | reduced | – | –
6 | NCCS(=O)(=O)O [Taurine] | – | 39.8 | – | – | – | – | – | – | –
